# According to publication PMC5011342, “A high throughput drug screening assay to identify compounds that promote oligodendrocyte differentiation using acutely dissociated and purified oligodendrocyte precursor cells” (BMC Research Notes, 2016):
# Read-outs that look alike come from different tables or passages of the source.
# Columns and labels:
# [1] = test system: acutely dissociated and purified rat OPCs; experiment: Acute OL differentiation assay (MBP expression/cell, immunofluorescent image quantification); type: cell-based; settings: sheet "All OLga data"; for activation at 2 µM / activation at 10 µM / activation at 0.4 µM: Rattus norvegicus; for activation at 0.4 µM: read-out: 0.4 uM (% Quet)
# Method in brief: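 This acute differentiation assay used purified rat OPCs from postnatal day 6–7 pups, seeded into PDL/laminin-coated 96-well plates in differentiation medium lacking PDGF and FGF. Compounds were applied in quadruplicate after a 1–2 h preincubation at 37 °C, 10 % CO2, with 0.1 % DMSO negative and 40 ng/ml T3 positive controls in eight wells. After fixation on DIV4, anti-MBP immunofluorescence images yielded MBP expression/cell.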
# expanded OPCs = experiment: cells; settings: for viability at 0.1 µM / viability at 1 µM / viability at 10 µM: Rattus norvegicus, 72 h
# Method in brief: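 Toxicity screen: compounds added at 0.1, 1 and 10 µM to PDGF-AA-expanded OPCs in 96-well plates, 3-day incubation at 37 °C, 10% CO2, then alamarBlue 1:10 for 4 h with fluorescence readout. Results set screening doses of 10/2, 2/0.4 or 0.4/0.08 µM.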
# [2] = test compound at 0.4 uM, NCC library screen, relative to quetiapine
# [3] = test compound at 2 uM, MBP expression relative to quetiapine, NCC library screen, read-out: 2 uM (% Quet)
# [4] = test compound at 10 uM, MBP expression relative to quetiapine, NCC library screen, read-out: 10 uM (% Quet)
# [5] = alamarBlue viability of expanded OPCs, compound at 0.1 µM, relative to DMSO control
# [6] = alamarBlue viability of expanded OPCs, compound at 1 µM, relative to DMSO control
# [7] = alamarBlue viability of expanded OPCs, compound at 10 µM, relative to DMSO control
# [8] = 2 uM test compound, relative to quetiapine, read-out: OL differentiation, 2 uM (% Quet)
# [9] = 10 uM test compound, relative to quetiapine, read-out: OL differentiation, 10 uM (% Quet)
# [10] = read-out: 0.1 µM (% DMSO), alamarBlue viability of expanded OPCs, compound at 0.1 µM, sheet All Tox data
# [11] = read-out: 1 µM (% DMSO), alamarBlue viability of expanded OPCs, compound at 1 µM, sheet All Tox data
# [12] = read-out: 10 µM (% DMSO), alamarBlue viability of expanded OPCs, compound at 10 µM, sheet All Tox data
# [13] = test compound at 2 uM, NCC library screen, relative to quetiapine, read-out: 2 uM (% Quet)
# [14] = test compound at 10 uM, NCC library screen, relative to quetiapine, read-out: 10 uM (% Quet)
# [15] = read-out: 0.1 µM (% DMSO), alamarBlue viability, NCC library compound at 0.1 µM, sheet "All Tox data"
# [16] = read-out: 1 µM (% DMSO), alamarBlue viability, NCC library compound at 1 µM, sheet "All Tox data"
# [17] = read-out: 10 µM (% DMSO), alamarBlue viability, NCC library compound at 10 µM, sheet "All Tox data"
smiles,measurement,setting,value
CC[C@H](C)C(=O)O[C@H]1CCC=C2C=C[C@H](C)[C@H](CC[C@@H]3C[C@@H](O)CC(=O)O3)[C@H]21 [Mevistatin],0.4 uM (% Quet),[1]; [2],-87.3 % Quet
same,2 uM (% Quet),"[1]; test compound at 2 uM, NCC library screen, relative to quetiapine",-111.9 % Quet
same,0.1 µM (% DMSO),"expanded OPCs; alamarBlue viability, NCC library compound at 0.1 µM, sheet ""All Tox data""",135.8 % DMSO
same,1 µM (% DMSO),"expanded OPCs; alamarBlue viability, NCC library compound at 1 µM, sheet ""All Tox data""",96.3 % DMSO
same,10 µM (% DMSO),"expanded OPCs; alamarBlue viability, NCC library compound at 10 µM, sheet ""All Tox data""",54.8 % DMSO
Cc1cccc(C)c1OCC(C)N (stereo not drawn) [Mexiletine],activation at 2 µM,[1]; [3],-15.2%
same,activation at 10 µM,[1]; [4],-7.4%
same,0.1 µM (% DMSO),expanded OPCs; [5],91.7 % DMSO
same,1 µM (% DMSO),expanded OPCs; [6],86.5 % DMSO
same,10 µM (% DMSO),expanded OPCs; [7],72.1 % DMSO
Clc1ccc(COC(Cn2ccnc2)c2ccc(Cl)cc2Cl)c(Cl)c1 (stereo not drawn) [Miconazole],activation at 0.4 µM,[1]; [2],43.2%
same,0.1 µM (% DMSO),expanded OPCs; [5],91.9 % DMSO
same,1 µM (% DMSO),expanded OPCs; [6],108.6 % DMSO
same,10 µM (% DMSO),expanded OPCs; [7],9.2 % DMSO
Cc1ncc2n1-c1ccc(Cl)cc1C(c1ccccc1F)=NC2 [Midazolam],activation at 2 µM,[1]; [8],-15.2%
same,activation at 10 µM,[1]; [9],-81.7%
same,viability at 0.1 µM,expanded OPCs; [10],91%
same,viability at 1 µM,expanded OPCs; [11],99.9%
same,viability at 10 µM,expanded OPCs; [12],128%
CCC(=O)O[C@@H]1CC(=O)O[C@H](C)C/C=C/C=C/[C@H](O)[C@H](C)C[C@H](CC=O)[C@H](O[C@@H]2O[C@H](C)[C@@H](O[C@H]3C[C@@](C)(O)[C@@H](OC(=O)CC)[C@H](C)O3)[C@H](N(C)C)[C@H]2O)[C@H]1OC [Midecamycin],activation at 2 µM,[1]; [8],-0.9%
same,activation at 10 µM,[1]; [9],-11.3%
same,viability at 0.1 µM,expanded OPCs; [10],92.7%
same,viability at 1 µM,expanded OPCs; [11],95.7%
same,viability at 10 µM,expanded OPCs; [12],91.2%
COc1ccc(OC)c(C(O)CNC(=O)CN)c1 (stereo not drawn) [Midodrine],activation at 2 µM,[1]; [13],-2.5%
same,activation at 10 µM,[1]; [14],6.3%
same,0.1 µM (% DMSO),expanded OPCs; [5],90.8 % DMSO
same,1 µM (% DMSO),expanded OPCs; [6],88.9 % DMSO
same,10 µM (% DMSO),expanded OPCs; [7],89.1 % DMSO
CC#C[C@]1(O)CC[C@H]2[C@@H]3CCC4=CC(=O)CCC4=C3[C@@H](c3ccc(N(C)C)cc3)C[C@@]21C [Mifepristone],activation at 0.4 µM,[1]; [2],-2.7%
same,activation at 2 µM,[1]; [13],-139%
same,viability at 0.1 µM,expanded OPCs; [15],84.5%
same,viability at 1 µM,expanded OPCs; [16],71.3%
same,viability at 10 µM,expanded OPCs; [17],26.4%
OCCN1C[C@H](O)[C@@H](O)[C@H](O)[C@H]1CO [Miglitol],activation at 2 µM,[1]; [8],13.5%
same,activation at 10 µM,[1]; [9],-3.3%
same,viability at 0.1 µM,expanded OPCs; [10],90.6%
same,viability at 1 µM,expanded OPCs; [11],92.6%
same,viability at 10 µM,expanded OPCs; [12],90.3%
CCN(CC)C(=O)C1(c2ccccc2)CC1CN (stereo not drawn) [Milnacipran],activation at 2 µM,[1]; [8],-17.2%
same,activation at 10 µM,[1]; [9],-8.5%
same,viability at 0.1 µM,expanded OPCs; [15],88.4%
same,viability at 1 µM,expanded OPCs; [16],85.1%
same,viability at 10 µM,expanded OPCs; [17],71.2%
Cc1[nH]c(=O)c(C#N)cc1-c1ccncc1 [Milrinone],activation at 2 µM,[1]; [8],5.1%
same,activation at 10 µM,[1]; [9],-2.1%
same,viability at 0.1 µM,expanded OPCs; [15],87.2%
same,viability at 1 µM,expanded OPCs; [16],85.8%
same,viability at 10 µM,expanded OPCs; [17],79.6%
CN(C)c1ccc(O)c2c1C[C@H]1C[C@H]3[C@H](N(C)C)C(O)=C(C(N)=O)C(=O)[C@@]3(O)C(O)=C1C2=O [Minocycline],activation at 2 µM,[1]; [13],10.9%
same,activation at 10 µM,[1]; [14],-13.3%
same,0.1 µM (% DMSO),expanded OPCs; [5],90.1 % DMSO
same,1 µM (% DMSO),expanded OPCs; [6],90.9 % DMSO
same,10 µM (% DMSO),expanded OPCs; [7],83.5 % DMSO
Nc1cc(N2CCCCC2)nc(N)[n+]1[O-] [Minoxidil],activation at 2 µM,[1]; [3],13.4%
same,activation at 10 µM,[1]; [4],-4.2%
same,0.1 µM (% DMSO),expanded OPCs; [5],93.0 % DMSO
same,1 µM (% DMSO),expanded OPCs; [6],102.8 % DMSO
same,10 µM (% DMSO),expanded OPCs; [7],89.5 % DMSO
CN1CCN2c3ncccc3Cc3ccccc3C2C1 (stereo not drawn) [Mirtazapine],activation at 0.4 µM,[1]; [2],-26.7%
same,activation at 2 µM,[1]; [13],-35.7%
same,viability at 0.1 µM,expanded OPCs; [15],94.4%
same,viability at 1 µM,expanded OPCs; [16],73%
same,viability at 10 µM,expanded OPCs; [17],60.1%
O=C(NCCN1CCOCC1)c1ccc(Cl)cc1 [Moclobemide],activation at 2 µM,[1]; [8],9.8%
same,activation at 10 µM,[1]; [9],-9.7%
same,viability at 0.1 µM,expanded OPCs; [10],99.2%
same,viability at 1 µM,expanded OPCs; [11],110%
same,viability at 10 µM,expanded OPCs; [12],113%
